Blank lines part the entries; values can stand above or below the compound they belong to. Active and inactive are the calls of the source. No cut-off for these calls is given here.
Key:
U-87 MG = experiment: Anti-proliferative activity against human U87 cells assessed as growth inhibition incubated for 72 hrs by alamar blue staining based fluorometric assay; assay type: functional, U-87MG ATCC
MCF7 [1] = experiment: Anti-proliferative activity against human MCF7 cells assessed as growth inhibition incubated for 72 hrs by alamar blue staining based fluorometric assay; assay type: functional
MCF7 [2] = experiment: Induction of apoptosis in human MCF7 cells incubated for 72 hrs by Annexin-V staining based flow cytometry analysis relative to control; assay type: functional
RKO [3] = experiment: Induction of apoptosis in human RKO cells incubated for 72 hrs by Annexin-V staining based flow cytometry analysis relative to control; assay type: functional
MOLT-4 = experiment: Anti-proliferative activity against human MOLT-4 cells assessed as growth inhibition incubated for 72 hrs by alamar blue staining based fluorometric assay; assay type: functional
K562 = experiment: Anti-proliferative activity against human K562 cells assessed as growth inhibition incubated for 72 hrs by alamar blue staining based fluorometric assay; assay type: functional
THP-1 = experiment: Anti-proliferative activity against human THP-1 cells assessed as growth inhibition incubated for 72 hrs by alamar blue staining based fluorometric assay; assay type: functional
HuT78 = experiment: Anti-proliferative activity against human HuT78 cells assessed as growth inhibition incubated for 72 hrs by alamar blue staining based fluorometric assay; assay type: functional
A549 [4] = experiment: Induction of apoptosis in human A549 cells incubated for 72 hrs by Annexin-V staining based flow cytometry analysis relative to control; assay type: functional
OVCAR-3 [5] = experiment: Induction of apoptosis in human OVCAR-3 cells incubated for 72 hrs by Annexin-V staining based flow cytometry analysis relative to control; assay type: functional
Jurkat [6] = experiment: Cytotoxicity in tubulin in human Jurkat cells assessed as tubulin acetylation at 0.2 uM incubated for 24 hrs by Western blotting analysis; assay type: functional, cell-based
HCT-116 [7] = experiment: Induction of apoptosis in human HCT-116 cells incubated for 72 hrs by Annexin-V staining based flow cytometry analysis relative to control; assay type: functional
Ramos = experiment: Anti-proliferative activity against human Ramos cells assessed as growth inhibition incubated for 72 hrs by alamar blue staining based fluorometric assay; assay type: functional
HeLa = experiment: Anti-proliferative activity against human HeLa cells assessed as growth inhibition incubated for 72 hrs by alamar blue staining based fluorometric assay; assay type: functional
HCT-116 [8] = experiment: Anti-proliferative activity against human HCT-116 cells assessed as growth inhibition incubated for 72 hrs by alamar blue staining based fluorometric assay; assay type: functional
Raji = experiment: Anti-proliferative activity against human Raji cells assessed as growth inhibition incubated for 72 hrs by alamar blue staining based fluorometric assay; assay type: functional
OVCAR-3 [9] = experiment: Anti-proliferative activity against human OVCAR-3 cells assessed as growth inhibition incubated for 72 hrs by alamar blue staining based fluorometric assay; assay type: functional
RPMI-8226 = experiment: Anti-proliferative activity against human RPMI-8226 cells assessed as growth inhibition incubated for 72 hrs by alamar blue staining based fluorometric assay; assay type: functional
Jurkat [10] = experiment: Cytotoxicity in human Jurkat cells assessed as histone acetylation at 0.2 uM incubated for 24 hrs by Western blotting analysis; assay type: functional, cell-based
SUD4 = experiment: Anti-proliferative activity against human SU-DHL-4 cells assessed as growth inhibition incubated for 72 hrs by alamar blue staining based fluorometric assay; assay type: functional
Jurkat [11] = experiment: Anti-proliferative activity against human Jurkat cells assessed as growth inhibition incubated for 72 hrs by alamar blue staining based fluorometric assay; assay type: functional
RKO [12] = experiment: Anti-proliferative activity against human RKO cells assessed as growth inhibition incubated for 72 hrs by alamar blue staining based fluorometric assay; assay type: functional
Jurkat [13] = experiment: Induction of apoptosis in human Jurkat cells assessed as decrease in FL-Bid at 5 uM incubated for 24 hrs by Western blotting analysis
A549 [14] = experiment: Anti-proliferative activity against human A549 cells assessed as growth inhibition incubated for 72 hrs by alamar blue staining based fluorometric assay; assay type: functional
CCRF-HSB-2 = experiment: Anti-proliferative activity against human CCRF-HSB-2 cells assessed as growth inhibition incubated for 72 hrs by alamar blue staining based fluorometric assay; assay type: functional
DB = experiment: Anti-proliferative activity against human DB cells assessed as growth inhibition incubated for 72 hrs by alamar blue staining based fluorometric assay; assay type: functional
Jurkat [15] = experiment: Induction of apoptosis in human Jurkat cells assessed as intracellular calcium level at 0.8 uM in presence of Iodo-1 by spectrofluorimetric analysis; assay type: functional, cell-based

GI50 (U-87 MG): 1200 nM
GI50 (MCF7 [1]): 150 nM
GI50 (MOLT-4): 120 nM
GI50 (K562): 150 nM
GI50 (THP-1): 75 nM
GI50 (Ramos): 130 nM
GI50 (HeLa): 200 nM
GI50 (HCT-116 [8]): 200 nM
GI50 (Raji): 120 nM
GI50 (OVCAR-3 [9]): 160 nM
GI50 (RPMI-8226): 120 nM
GI50 (Jurkat [11]): 110 nM
GI50 (A549 [14]): 180 nM
GI50 (CCRF-HSB-2): 100 nM
SMILES: CN(C)Cc1c(C(=O)NCCOc2ccc(C(=O)NO)cc2)oc2ccccc12.Cl [ABEXINOSTAT HYDROCHLORIDE]
Activity (MCF7 [2]): 37%
Activity (RKO [3]): 45%
GI50 (HuT78): 110 nM
Activity (A549 [4]): 47%
Activity (OVCAR-3 [5]): 55%
Activity (Jurkat [6]): Active
Activity (HCT-116 [7]): 70%
Activity (Jurkat [10]): Active
GI50 (SUD4): 100 nM
GI50 (RKO [12]): 1500 nM
Activity (Jurkat [13]): Active
GI50 (DB): 150 nM

SMILES: COc1ccc2c(c1)CC[C@@H]1[C@@H]2CC[C@]2(C)[C@@H](NCCCCCCN3C(=O)CCC3=O)CC[C@@H]12
Activity (Jurkat [15]): inactive

Source: ChEMBL document CHEMBL5715942, “A novel histone deacetylase 8 (HDAC8)-specific inhibitor PCI-34051 induces apoptosis in T-cell lymphomas” (Leukemia, 2008)
